According to patent publication US20230173090A1, “COMPOSITIONS AND METHODS FOR MODULATING DOPAMINE RECEPTOR ACTIVITY” (The Regents of the University of California, priority 2020, published 2023):

Experiments:
[1] = molecular target: T1, intracellular SNAP-tag (Homo sapiens, UniProt P16455, A127T/A154D/C150Q/C62A/E30R/G131K/G132T/G153L/K125A/K32I/L33F/M134L/N157G/Q115S/Q116H/R128A/R135S/S151G/S152D/S159E); test: Block of BG-TMRstar binding to intracellular SNAP-tag expressed in the cytosol; assay type: cell-based; conditions: 1 µM for 1 hour, then 1.5 µM BG-TMRstar for 20 minutes
T1 construct: expressed in transfected cells
T1 sequence (P16455 1-182 E30R/K32I/L33F/C62A/Q115S/Q116H/K125A/A127T/R128A/G131K/G132T/M134L/R135S/C150Q/S151G/S152D/G153L/A154D/N157G/S159E limits assumed): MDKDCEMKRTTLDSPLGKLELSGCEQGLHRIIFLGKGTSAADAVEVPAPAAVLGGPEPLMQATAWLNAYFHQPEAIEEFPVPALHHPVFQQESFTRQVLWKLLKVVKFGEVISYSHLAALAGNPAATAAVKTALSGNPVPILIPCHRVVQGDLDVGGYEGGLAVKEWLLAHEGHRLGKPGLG

[2] = molecular target: T2, SNAP-D1R (Homo sapiens, UniProt P21728); test: SNAP-D1R photoactivation, GIRK assay in HEK293T cells; assay type: cell-based; conditions: P-D1ago tethered to SNAP-tag fused to the N-terminus of D1R
T2 construct: expressed in transfected cells; host or cells: HEK293T
Text: To test the ability of P-D1ago to photo-activate D1R, it was attached directly to a version of D1R that has SNAP fused to its extracellular N-terminus, which is adjacent to the ligand binding site of the receptor. SNAP-D1R was co-expressed in HEK293T cells with the G protein-coupled inwardly rectifying potassium (GIRK) channel as an effector. […] P-D1ago was attached to the M, which was co-expressed in HEK293T cells with the native D1R and the GIRK channel. […] To optimize D1R photoactivation, the geometric positioning of P-D1ago was adjusted using variants of M with “lift” peptides between the SNAP-tag and transmembrane segment. Photoactivation increased with an M variant containing a rigid, α-helical EAAAK (SEQ ID NO: 13) peptide (MEAAAK (SEQ ID NO: 16); FIG. 2B, C, and E) and decreased as the lift peptide was further extended (FIGS. 11D-11F), presumably because P-D1ago “rises” too far from the cell surface.
FIGS. 10A-10C. […] (A) Schematic representation of P-D1ago tethered to a SNAP-tag fused directly to the extracellular N-terminus of D1R. (B) Representative trace of SNAP-D1R photoactivation by P-D1ago according to the GIRK assay. […] (C) Summary of SNAP-D1R photoactivation by P-D1ago relative to a saturating concentration of DA (10 µM). n = 5 cells.

[3] = molecular target: dStr-dMSN D1Rs (Mus musculus, UniProt Q61616); test: Open field test, MP-D1ago in dStr-dMSNs of D1-Cre mice; conditions: trans-P-D1ago 100 µM, 1 µL bilateral dStr-infusion, mice expressing the M
Text: The mice were 20-30 grams and 8-20 weeks old. […] Mice were maintained on a 12:12 light cycle (lights on at 07:00).
The sub-second velocity traces recorded using Biobserve were smoothed in MATLAB using a first order Butterworth filter (normalized cutoff frequency ωu = 0.02). Using original code written in MATLAB, a velocity threshold was manually set to distinguish movements from tracking artifacts, as verified by visual inspection of each movie. Movement bouts were counted when the velocity surpassed this threshold and lasted for at least 0.3 seconds. Bouts were considered finished after the velocity remained below the manually defined threshold for 0.1 seconds. The percent time moving was calculated as the time that velocity was above the movement threshold divided by the time of the entire measurement. Movement initiation frequency was calculated as the number of times velocity surpassed the movement threshold per second. Movement bout duration was calculated by averaging the duration of all movement bouts that occurred during the entire measurement. Max velocity was calculated by averaging the maximum velocity of all movement bouts that occurred during the entire measurement.

[4] = test system: membrane-anchor (M) (SNAP-tag); test: Labeling of the membrane-anchor (M) at the cell surface: block of BG-Alexa647 binding, imaging and flow cytometry; assay type: cell-based; conditions: 1 µM for 1 hour, then 1.5 µM BG-Alexa647 for 30 minutes
Protocol: Untransfected or membrane-anchor (M) expressing HEK293T cells were labeled with 1.5 µM BG-TMR or BG-Alexa647 (NEB) for 20-30 minutes in the dark at 37° C. and 5% CO2 in a standard extracellular solution. Cells were then (i) mounted on an upright, scanning confocal microscope (Zeiss LSM 780) and imaged with a 20x objective or (ii) washed in DPBS and measured by flow cytometry (BD LSR II).
FIGS. 8A-8D. Photophysical properties of P-D1ago. (A) Absorbance spectra of P-D1ago under blue light (460 nm; blue) and UV light (370 nm; grey). (B) P-D1ago repeatedly switches from its trans to cis isomer with UV light and back to trans with blue light. […] Cells were incubated for 1 hour with vehicle (left upper panels), 1 µM surface block (left middle panels), or 1 µM P-D1ago (left lower panels), and were then labeled for 30 minutes with 1.5 µM BG-Alexa647. Cytosolic tdTomato was used as a transfection marker, grey bar = […]. A summary of labeling according to flow cytometry is shown on the right. unpaired two-sided t-test, p = 0.60. n = 3-6 replicates per condition. (D) M labeling as a function of the concentration of P-D1ago. The M was incubated for 1 hour with increasing concentrations of P-D1ago, and then labeled for 30 minutes with 1.5 µM BG-Alexa647. Labeling was measured by flow cytometry. […] Labeling was measured by flow cytometry. n = 3-4 replicates per condition. […]

Chain of dStr-dMSN D1Rs (Q61616 whole entry, the tested form may be a part): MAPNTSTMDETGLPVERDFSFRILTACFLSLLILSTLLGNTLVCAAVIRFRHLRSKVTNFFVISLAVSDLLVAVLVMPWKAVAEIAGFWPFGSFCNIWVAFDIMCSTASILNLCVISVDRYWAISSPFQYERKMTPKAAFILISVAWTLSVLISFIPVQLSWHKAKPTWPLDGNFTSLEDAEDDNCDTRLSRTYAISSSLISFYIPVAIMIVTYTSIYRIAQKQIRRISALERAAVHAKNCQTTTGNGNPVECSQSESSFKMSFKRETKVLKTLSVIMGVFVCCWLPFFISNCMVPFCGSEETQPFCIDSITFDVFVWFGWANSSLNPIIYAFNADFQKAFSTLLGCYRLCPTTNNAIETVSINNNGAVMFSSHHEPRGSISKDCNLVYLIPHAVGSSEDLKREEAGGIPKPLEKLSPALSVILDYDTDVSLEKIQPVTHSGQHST
T2 sequence (P21728 with tags, fused parts or gaps): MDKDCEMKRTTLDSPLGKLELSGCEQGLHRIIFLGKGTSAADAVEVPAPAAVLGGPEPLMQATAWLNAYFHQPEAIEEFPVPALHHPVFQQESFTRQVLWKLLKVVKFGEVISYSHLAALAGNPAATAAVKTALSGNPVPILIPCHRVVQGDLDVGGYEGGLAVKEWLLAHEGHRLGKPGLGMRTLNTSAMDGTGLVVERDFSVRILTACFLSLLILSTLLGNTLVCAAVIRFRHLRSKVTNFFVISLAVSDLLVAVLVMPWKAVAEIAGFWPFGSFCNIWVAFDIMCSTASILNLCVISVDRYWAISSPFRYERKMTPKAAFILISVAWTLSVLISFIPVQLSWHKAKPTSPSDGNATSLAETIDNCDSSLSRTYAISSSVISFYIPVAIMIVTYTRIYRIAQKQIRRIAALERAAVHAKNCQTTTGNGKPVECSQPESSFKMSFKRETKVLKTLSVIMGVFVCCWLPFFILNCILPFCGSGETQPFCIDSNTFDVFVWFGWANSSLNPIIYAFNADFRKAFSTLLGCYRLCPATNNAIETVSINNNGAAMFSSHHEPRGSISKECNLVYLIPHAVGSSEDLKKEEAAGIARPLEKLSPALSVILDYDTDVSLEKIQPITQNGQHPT

## CCCN(CCc1ccc(N=Nc2ccc(NC(=O)CNC(=O)CCOCCOCCOCCOCCOCCOCCOCCOCCOCCOCCOCCOCCn3cc(CCC(=O)NCc4ccc(COc5nc(N)nc6nc[nH]c56)cc4)nn3)cc2)cc1)C1CCc2c(O)cccc2C1 (stereo not shown) [P-D1ago, Benzylguanine-azobenzene-PPHT]
[1]
  block of BG-TMRstar binding to intracellular SNAP-tag (membrane permeation): does not effectively prevent the binding
[2]
  SNAP-D1R photoactivation: photoactivates D1R in response to blue light and is deactivated with UV light
[3]
  persistence of increased motor activity: remained high for many hours
  return of motor activity to baseline: returned to baseline over a two-day period
[3]; dark
  time to increase of motor activity after start of infusion: ≤ 30 min
[4]
  binding to the M at the cell surface (block of BG-Alexa647 binding): almost completely
[4]; listed as P-Dlago
  binding to the M at the cell surface (block of BG-Alexa647 binding): binds efficiently
